Experiment: in vitro
Details: human, hela cells, % viability
`Cc1ccc(Cl)cc1N(CC(=O)Nc1ccccc1C(=O)O)S(C)(=O)=O` [CBK264020] showed a viability at 28.5 h, 10 µM of 89.5%.
Work on `C=C(C)Cn1c(SCC(C)C)nnc1-c1scc(C)c1Cl` [CBK200095] yielded a viability at 28.5 h, 10 µM of 92.7%.
Work on `OCc1ccc(-c2nccnc2N2CCCC2CO)cc1` (stereo not drawn) [CBK089053] yielded a viability at 28.5 h, 10 µM of 96.3%.
In the case of `CN(CC(N)=O)C(=O)CCn1c(=O)oc2cc(Cl)ccc21` [CBK305757], the viability at 28.5 h, 10 µM is reported as 94.9%.
In the case of `Cc1nncn1-c1ccc(Cl)cc1C(=O)c1ccccc1Cl` [CBK012372], the viability at 28.5 h, 10 µM is reported as 101%.
For `O=C(C1=C(O)C(=O)N(CCCn2ccnc2)C1c1ccc(Br)cc1)c1ccc2c(c1)OCCO2` (stereo not drawn) [CBK266081], the viability at 28.5 h, 10 µM was 104%.
In the case of `O=C(NCc1ccccc1)c1ccc(CN2CCC(Cc3ccccc3)CC2)cc1` [CBK263432], the viability at 28.5 h, 10 µM is reported as 87.5%.
`N#Cc1c(NC(=O)c2cc(S(=O)(=O)N3CCOCC3)cs2)sc2c1CCCC2` [CBK264532] gave a viability at 28.5 h, 10 µM of 102%.
Compound `O=C(Nc1nnc(COc2ccccc2)s1)c1cccc2ccccc12` [CBK300487] has a viability at 28.5 h, 10 µM of 97.6%.
`CCn1cc(NC(=O)CC(C)(O)c2ccccc2)ccc1=O` (stereo not drawn) [CBK304507] showed a viability at 28.5 h, 10 µM of 91.7%.
For `COc1cc(C=CC(=O)O)cc(S(=O)(=O)Nc2ccccc2C(=O)NCCc2ccccc2)c1OC` [CBK297487], the viability at 28.5 h, 10 µM was 99.5%.
For `CCOCCn1c(N2CC(C)CC(C)C2)nc2c1c(=O)[nH]c(=O)n2C` (stereo not drawn) [CBK306200], the viability at 28.5 h, 10 µM was 83.6%.
For `COc1ccccc1CC(=O)NCCC(=O)N1CCN(c2ccc(F)cc2)CC1` [CBK298318], the viability at 28.5 h, 10 µM was 87.6%.
Work on `COc1ccccc1NC(=O)Cn1cc(C(=O)c2cccs2)c2ccccc21` [CBK268256] yielded a viability at 28.5 h, 10 µM of 98.6%.
In the case of `N=C(NC(=S)Nc1ccccc1)N1CCN(Cc2ccccc2)CC1` [CBK267878], the viability at 28.5 h, 10 µM is reported as 106%.
For `NC(=O)C1CCN(C(=O)CSc2nc3ccccc3o2)CC1` [CBK265930], the viability at 28.5 h, 10 µM was 97.8%.
`CC(C)(C)CC(NC(=O)C1CCCN(S(C)(=O)=O)C1)c1ccccc1` (stereo not drawn) [CBK304563] gave a viability at 28.5 h, 10 µM of 90.6%.
For `O=C1c2cccc3cccc(c23)C(=O)N1CC1CCN(CC(O)COCC2COc3ccccc3O2)CC1` (stereo not drawn) [CBK074412C], the viability at 28.5 h, 10 µM was 100%.
In the case of `O=C(O)CCC(=O)N1CCN(Cc2ccc(Cl)cc2)CC1` [CBK286852], the viability at 28.5 h, 10 µM is reported as 90%.
In the case of `COc1ccc(C)cc1S(=O)(=O)Nc1cc(OCCN2CCOCC2)c2occc2c1` [CBK067419C], the viability at 28.5 h, 10 µM is reported as 87.7%.
For `NC(=O)c1nnc2ccc(Cl)cc2c1N` [CBK026161], the viability at 28.5 h, 10 µM was 89.9%.
Work on `CCN1C(=O)c2ccccc2C(=O)[C@@]2(C)CN(C(=O)C3CC3)C[C@@H]12` [CBK284567] yielded a viability at 28.5 h, 10 µM of 81.5%.
Work on `Cc1nnc(SCC(=O)Nc2ccc(CN3CCOCC3)cc2)n1C` [CBK306092] yielded a viability at 28.5 h, 10 µM of 102%.
`CC(C)Nc1cncc(OCC2CN(C)CCN2C)n1` (stereo not drawn) [CBK115602] showed a viability at 28.5 h, 10 µM of 87.7%.
With `CCC(CC)C(=O)N1CCN(Cc2ccccc2)CCC1=O` [CBK284830] the viability at 28.5 h, 10 µM was 87.9%.
`O=C(O)c1ccccc1SC1CC(=O)N(c2ccccc2)C1=O` (stereo not drawn) [CBK273885] showed a viability at 28.5 h, 10 µM of 94.6%.
`Cc1ccc(CSCCNS(=O)(=O)c2cccc([N+](=O)[O-])c2)cc1` [CBK267864] showed a viability at 28.5 h, 10 µM of 108%.
In the case of `COc1ccc(CNCc2cccc(OC)c2OC)cc1Br` [CBK074479], the viability at 28.5 h, 10 µM is reported as 113%.
With `Nc1nc2c(s1)c(O)nc(=O)n2Cc1ccccc1` [CBK291257] the viability at 28.5 h, 10 µM was 88.6%.
Compound `COc1ccc2[nH]cc(CCNC(=O)c3ccc4[nH]c(=O)[nH]c4c3)c2c1` [CBK122721] has a viability at 28.5 h, 10 µM of 93.4%.
With `NC(=O)C1(N2CCCCC2)CCN(Cc2nc(O)c3ccccc3n2)CC1` [CBK265896] the viability at 28.5 h, 10 µM was 103%.
For `O=C(c1ccc2ncccc2c1)N1CCN(C(=O)c2ccco2)CC1` [CBK144461], the viability at 28.5 h, 10 µM was 94%.
For `C=CCNC(=O)c1cnc(-c2ccc(Cl)cc2)c(-c2ccco2)c1` [CBK036738], the viability at 28.5 h, 10 µM was 90.6%.
Work on `O=C(Nc1ccc([C@@H](O)[C@H]2COCC(=O)N2Cc2ccc(F)cc2)cc1)c1ccccc1` [CBK289061] yielded a viability at 28.5 h, 10 µM of 86.1%.
In the case of `Cc1ccc(-c2ccccc2CC2(C(=O)Nc3cccc(C(N)=O)c3)CCOCC2)c(C)c1` [CBK286423], the viability at 28.5 h, 10 µM is reported as 92.7%.
Compound `O=S(=O)(Nc1ccc2c(ccn2Cc2ccccc2)c1)c1ccc(S(=O)(=O)c2ccccc2)s1` [CBK159533] has a viability at 28.5 h, 10 µM of 114%.
In the case of `Cc1ccc(S(=O)(=O)Nc2ccc(Nc3cc(-c4ccsc4)ncn3)cc2)cc1` [CBK037792], the viability at 28.5 h, 10 µM is reported as 96.5%.
`O=C(O)Cc1sc(NCCN2CCOCC2)nc1-c1ccccc1` [CBK200113T] showed a viability at 28.5 h, 10 µM of 88.7%.
In the case of `CCCCN=C(NCCCn1cccn1)N1CCCN(C(C)=O)CC1` [CBK304273I], the viability at 28.5 h, 10 µM is reported as 107%.
`CN(Cc1ccc(-c2ccc(S(C)(=O)=O)cc2)nc1)C1CCN(C(=O)CC2CCCCC2)CC1` [CBK164105T] showed a viability at 28.5 h, 10 µM of 92.6%.
Work on `C[C@H](Nc1nc(-c2cccc3ncccc23)cnc1N)c1ccccc1` [CBK063771] yielded a viability at 28.5 h, 10 µM of 97.6%.
`O=C(CC1S/C(=N/N=C/c2cn(Cc3ccccc3)c3ccccc23)NC1=O)Nc1ccccc1` (stereo not drawn) [CBK264529] gave a viability at 28.5 h, 10 µM of 84%.
Compound `Cc1c(C(=O)NCCOc2ccc(-c3ccccc3)cc2)sc2nc[nH]c(=O)c12` [CBK285805] has a viability at 28.5 h, 10 µM of 92.2%.
For `CC[C@H](C)[C@H](NC(N)=O)C(=O)Nc1ccc(F)c([N+](=O)[O-])c1` [CBK297489], the viability at 28.5 h, 10 µM was 97.1%.
Compound `CC(=O)Nc1ncc(Cl)s1` [CBK015564] has a viability at 28.5 h, 10 µM of 108%.
`CNc1nc2ccccc2n1CC(=O)c1ccccc1` [CBK262251B] gave a viability at 28.5 h, 10 µM of 96%.
With `Cc1cc(Cl)ccc1NC(=O)COC(=O)c1ccccc1I` [CBK265638] the viability at 28.5 h, 10 µM was 89.6%.
In the case of `COc1ccc(C(=O)N2CCC[C@H]3NC(=O)COc4ccccc4C(=O)N[C@@H]4CCOC[C@@H]4C/C=C/C[C@@H]32)cc1` [CBK292194], the viability at 28.5 h, 10 µM is reported as 102%.
Work on `FC(F)(F)c1ccnc(OC2CCNC2)n1` (stereo not drawn) [CBK113296] yielded a viability at 28.5 h, 10 µM of 92.1%.
With `Cc1cc(N2CCNCC2)c2ccccc2n1` [CBK066895] the viability at 28.5 h, 10 µM was 86.1%.
Work on `CC(=O)N1CCc2c(sc(NC(=O)c3ccc(C)cc3)c2C#N)C1` [CBK304411] yielded a viability at 28.5 h, 10 µM of 52.6%.
Compound `COCCNCc1ccc(OCc2ccccc2)cc1` [CBK270133C] has a viability at 28.5 h, 10 µM of 91.1%.
Work on `O=C(c1nc2ncccn2n1)N1CCc2ccccc2C1` [CBK288079] yielded a viability at 28.5 h, 10 µM of 88%.
With `COc1cncc(C(NC(=O)c2ccc3[nH]nnc3c2)[C@H]2C[C@@H](O)C2)c1` (stereo partly drawn) [CBK307049] the viability at 28.5 h, 10 µM was 108%.
For `COc1ccc(NC(=O)C(=O)NCc2ccncc2)cc1` [CBK287723], the viability at 28.5 h, 10 µM was 105%.
`CCC(C)NC(=O)Cn1c(C2CCNCC2)cc2cccnc21` (stereo not drawn) [CBK285003] showed a viability at 28.5 h, 10 µM of 103%.
Work on `COc1ccc(CC(=O)N2CCCC2c2nnc3ccccn23)cc1` (stereo not drawn) [CBK304719] yielded a viability at 28.5 h, 10 µM of 117%.
For `O=C(CCc1ccccc1)N1CCC(c2n[nH]c3ncccc23)CC1` [CBK284906], the viability at 28.5 h, 10 µM was 94.3%.
`Cc1ccc2[nH]c3c(c2c1)CCNCC3` [CBK004811] gave a viability at 28.5 h, 10 µM of 98.3%.

Same assay, conditions: human, hela cells, % viability, bulk resorufin, single well
For `Cc1ccc(Cl)c(OC(=O)NCCOC(=O)NO)c1` [CBK288417], the viability at 28.5 h, 10 µM was 94.3%.
`COc1ccc(CC(=O)Nc2cccc(-c3ccc4c(c3)COC3(CCNCC3)O4)c2)c(OC)c1` [CBK115706] gave a viability at 28.5 h, 10 µM of 89.6%.
In the case of `CC(=O)Nc1cccc(-c2ccc3c(c2)COC2(CCNCC2)O3)c1` [CBK060956], the viability at 28.5 h, 10 µM is reported as 94.5%.
For `O=C1NC(=O)N(c2cccc([N+](=O)[O-])c2)C(=O)/C1=C\c1ccccc1OCc1ccc(C(=O)O)cc1` [CBK265484], the viability at 28.5 h, 10 µM was 106%.

Reference: article PMC12040169 (PLOS Biology, 2025)
